Tested on: 435261-313-R-J1-PDC tumor spheroid viability
Assay: Anticancer human tumor 435261-313-R-J1-PDC patient-derived colon adenocarcinoma cell line growth inhibition [PI3K]
Details: spheroids with HUVEC and MSC; for IC50: curve of first compound; for viability, T/C: stronger effect = lower value
Method in brief: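 Complex 3D spheroids (cancer cells + endothelial HUVEC + mesenchymal stem cells); drug pairs of targeted agent x inavolisib/alpelisib/duvelisib/copanlisib; half-log series from ~Cmax, max 10 microM if Cmax unknown; endpoint viability.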

[1] = second compound 0.00316 µM, first compound 0.0316 µM
[2] = second compound 0.00316 µM, first compound 0.1 µM
[3] = second compound 0.01 µM, first compound 0.0316 µM
[4] = second compound 0.01 µM, first compound 0.1 µM
[5] = second compound 0.0316 µM, first compound 0.0316 µM
[6] = second compound 0.0316 µM, first compound 0.1 µM
[7] = second compound 0.1 µM, first compound 0.0316 µM
[8] = second compound 0.1 µM, first compound 0.1 µM
[9] = second compound 0.316 µM, first compound 0.0316 µM
[10] = second compound 0.316 µM, first compound 0.1 µM
[11] = second compound 1 µM, first compound 0.0316 µM
[12] = second compound 1 µM, first compound 0.1 µM
[13] = second compound 0.00316 µM, first compound 0.316 µM
[14] = second compound 0.00316 µM, first compound 1 µM
[15] = second compound 0.00316 µM, first compound 3.16 µM
[16] = second compound 0.00316 µM, first compound 10 µM
[17] = second compound 0.01 µM, first compound 0.316 µM
[18] = second compound 0.01 µM, first compound 1 µM
[19] = second compound 0.01 µM, first compound 3.16 µM
[20] = second compound 0.01 µM, first compound 10 µM
[21] = second compound 0.0316 µM, first compound 0.316 µM
[22] = second compound 0.0316 µM, first compound 1 µM
[23] = second compound 0.0316 µM, first compound 3.16 µM
[24] = second compound 0.0316 µM, first compound 10 µM
[25] = second compound 0.1 µM, first compound 0.316 µM
[26] = second compound 0.1 µM, first compound 1 µM
[27] = second compound 0.1 µM, first compound 3.16 µM
[28] = second compound 0.1 µM, first compound 10 µM
[29] = second compound 0.316 µM, first compound 0.316 µM
[30] = second compound 0.316 µM, first compound 1 µM
[31] = second compound 0.316 µM, first compound 3.16 µM
[32] = second compound 0.316 µM, first compound 10 µM
[33] = second compound 1 µM, first compound 0.316 µM
[34] = second compound 1 µM, first compound 1 µM
[35] = second compound 1 µM, first compound 3.16 µM
[36] = second compound 1 µM, first compound 10 µM
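Further: spheroids exposed to compounds for 7 days.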

Structure (SMILES): Cn1ncnc1[C@H]1c2n[nH]c(=O)c3cc(F)cc(c23)N[C@@H]1c1ccc(F)cc1 + CC(Nc1ccc2c(c1)OCCn1cc(N3C(=O)OCC3C(F)F)nc1-2)C(N)=O
- IC50 (second compound 0.00316 µM): > 0.1 µM
- IC50 (second compound 0.01 µM): > 0.1 µM
- IC50 (second compound 0.0316 µM): 0.0435 µM
- IC50 (second compound 0.1 µM): 0.000592 µM
- IC50 (second compound 0.316 µM): < 0.000316 µM
- IC50 (second compound 1 µM): < 0.000316 µM
- viability, T/C (second compound 0.00316 µM, first compound 0.000316 µM): 105%
- viability, T/C (second compound 0.00316 µM, first compound 0.001 µM): 88.5%
- viability, T/C (second compound 0.00316 µM, first compound 0.00316 µM): 102%
- viability, T/C (second compound 0.00316 µM, first compound 0.01 µM): 96.3%
- viability, T/C [1]: 83.9%
- viability, T/C [2]: 69.4%
- viability, T/C (second compound 0.01 µM, first compound 0.000316 µM): 74.4%
- viability, T/C (second compound 0.01 µM, first compound 0.001 µM): 85.5%
- viability, T/C (second compound 0.01 µM, first compound 0.00316 µM): 81.7%
- viability, T/C (second compound 0.01 µM, first compound 0.01 µM): 95.8%
- viability, T/C [3]: 68%
- viability, T/C [4]: 50.2%
- viability, T/C (second compound 0.0316 µM, first compound 0.000316 µM): 67.4%
- viability, T/C (second compound 0.0316 µM, first compound 0.001 µM): 81.3%
- viability, T/C (second compound 0.0316 µM, first compound 0.00316 µM): 92.6%
- viability, T/C (second compound 0.0316 µM, first compound 0.01 µM): 86.1%
- viability, T/C [5]: 53.6%
- viability, T/C [6]: 40.4%
- viability, T/C (second compound 0.1 µM, first compound 0.000316 µM): 55.6%
- viability, T/C (second compound 0.1 µM, first compound 0.001 µM): 42.9%
- viability, T/C (second compound 0.1 µM, first compound 0.00316 µM): 41.9%
- viability, T/C (second compound 0.1 µM, first compound 0.01 µM): 39.4%
- viability, T/C [7]: 36.1%
- viability, T/C [8]: 30.7%
- viability, T/C (second compound 0.316 µM, first compound 0.000316 µM): 21.6%
- viability, T/C (second compound 0.316 µM, first compound 0.001 µM): 20.8%
- viability, T/C (second compound 0.316 µM, first compound 0.00316 µM): 26.2%
- viability, T/C (second compound 0.316 µM, first compound 0.01 µM): 19.5%
- viability, T/C [9]: 20.6%
- viability, T/C [10]: 17.1%
- viability, T/C (second compound 1 µM, first compound 0.000316 µM): 18.3%
- viability, T/C (second compound 1 µM, first compound 0.001 µM): 17.5%
- viability, T/C (second compound 1 µM, first compound 0.00316 µM): 17%
- viability, T/C (second compound 1 µM, first compound 0.01 µM): 20.7%
- viability, T/C [11]: 20.2%
- viability, T/C [12]: 12.5%

Structure (SMILES): CC1(C)CCC(Nc2ncc(C(F)(F)F)c(-c3c[nH]c4c(P(C)(C)=O)c(C#N)ccc34)n2)CN1 (stereo unspecified) + CC(Nc1ccc2c(c1)OCCn1cc(N3C(=O)OCC3C(F)F)nc1-2)C(N)=O
- IC50 (second compound 0.00316 µM): 1.2 µM
- IC50 (second compound 0.01 µM): 1.04 µM
- IC50 (second compound 0.0316 µM): < 0.0316 µM
- IC50 (second compound 0.1 µM): < 0.0316 µM
- IC50 (second compound 0.316 µM): < 0.0316 µM
- IC50 (second compound 1 µM): < 0.0316 µM
- viability, T/C [1]: 46.7%
- viability, T/C [2]: 58.8%
- viability, T/C [13]: 43.8%
- viability, T/C [14]: 58.8%
- viability, T/C [15]: 39.4%
- viability, T/C [16]: 0.93%
- viability, T/C [3]: 52%
- viability, T/C [4]: 53.4%
- viability, T/C [17]: 48%
- viability, T/C [18]: 51.3%
- viability, T/C [19]: 38.6%
- viability, T/C [20]: 0.98%
- viability, T/C [5]: 44.4%
- viability, T/C [6]: 47.9%
- viability, T/C [21]: 38.8%
- viability, T/C [22]: 40.8%
- viability, T/C [23]: 33.4%
- viability, T/C [24]: 0.99%
- viability, T/C [7]: 30%
- viability, T/C [8]: 31.6%
- viability, T/C [25]: 27.2%
- viability, T/C [26]: 30.2%
- viability, T/C [27]: 24.5%
- viability, T/C [28]: 0.45%
- viability, T/C [9]: 24.2%
- viability, T/C [10]: 22.8%
- viability, T/C [29]: 20.1%
- viability, T/C [30]: 20.2%
- viability, T/C [31]: 15%
- viability, T/C [32]: 0.63%
- viability, T/C [11]: 20.9%
- viability, T/C [12]: 15%
- viability, T/C [33]: 17%
- viability, T/C [34]: 18.8%
- viability, T/C [35]: 10.4%
- viability, T/C [36]: 0.26%

Structure (SMILES): Cn1ncc(Cl)c1-c1cc(C(=O)NC(CN)Cc2cccc(F)c2)sc1Cl (stereo unspecified) + CC(Nc1ccc2c(c1)OCCn1cc(N3C(=O)OCC3C(F)F)nc1-2)C(N)=O
- IC50 (second compound 0.00316 µM): 0.567 µM
- IC50 (second compound 0.01 µM): 0.447 µM
- IC50 (second compound 0.0316 µM): 0.225 µM
- IC50 (second compound 0.1 µM): 0.0319 µM
- IC50 (second compound 0.316 µM): < 0.0316 µM
- IC50 (second compound 1 µM): < 0.0316 µM
- viability, T/C [1]: 75.2%
- viability, T/C [2]: 84.9%
- viability, T/C [13]: 67.3%
- viability, T/C [14]: 31.6%
- viability, T/C [15]: 18.7%
- viability, T/C [16]: 7.28%
- viability, T/C [3]: 67.9%
- viability, T/C [4]: 92.8%
- viability, T/C [17]: 51.9%
- viability, T/C [18]: 31.2%
- viability, T/C [19]: 19.1%
- viability, T/C [20]: 6.44%
- viability, T/C [5]: 67.8%
- viability, T/C [6]: 91.3%
- viability, T/C [21]: 37.5%
- viability, T/C [22]: 25.3%
- viability, T/C [23]: 17.2%
- viability, T/C [24]: 5.79%
- viability, T/C [7]: 50.8%
- viability, T/C [8]: 38%
- viability, T/C [25]: 21.1%
- viability, T/C [26]: 19.4%
- viability, T/C [27]: 15.4%
- viability, T/C [28]: 5.16%
- viability, T/C [9]: 20.9%
- viability, T/C [10]: 20.1%
- viability, T/C [29]: 14%
- viability, T/C [30]: 16.5%
- viability, T/C [31]: 13%
- viability, T/C [32]: 4.44%
- viability, T/C [11]: 18.2%
- viability, T/C [12]: 13.5%
- viability, T/C [33]: 15.7%
- viability, T/C [34]: 17.2%
- viability, T/C [35]: 11.4%
- viability, T/C [36]: 2.55%
